# Reference: ChEMBL document CHEMBL2040771, “Discovery of a potent inhibitor of anaplastic lymphoma kinase with in vivo antitumor activity” (ACS Med Chem Lett, 2010)
# Key:
# [1] = biological target: Insulin receptor (Homo sapiens, UniProt P06213); experiment: Inhibition of insulin receptor
# [2] = Oral bioavailability in rat; type: ADME, organism-based; details: in vivo
# [3] = biological target: ALK tyrosine kinase receptor (Homo sapiens, UniProt Q9UM73); experiment: Inhibition of ALK
# Chain of ALK tyrosine kinase receptor (Q9UM73 whole entry): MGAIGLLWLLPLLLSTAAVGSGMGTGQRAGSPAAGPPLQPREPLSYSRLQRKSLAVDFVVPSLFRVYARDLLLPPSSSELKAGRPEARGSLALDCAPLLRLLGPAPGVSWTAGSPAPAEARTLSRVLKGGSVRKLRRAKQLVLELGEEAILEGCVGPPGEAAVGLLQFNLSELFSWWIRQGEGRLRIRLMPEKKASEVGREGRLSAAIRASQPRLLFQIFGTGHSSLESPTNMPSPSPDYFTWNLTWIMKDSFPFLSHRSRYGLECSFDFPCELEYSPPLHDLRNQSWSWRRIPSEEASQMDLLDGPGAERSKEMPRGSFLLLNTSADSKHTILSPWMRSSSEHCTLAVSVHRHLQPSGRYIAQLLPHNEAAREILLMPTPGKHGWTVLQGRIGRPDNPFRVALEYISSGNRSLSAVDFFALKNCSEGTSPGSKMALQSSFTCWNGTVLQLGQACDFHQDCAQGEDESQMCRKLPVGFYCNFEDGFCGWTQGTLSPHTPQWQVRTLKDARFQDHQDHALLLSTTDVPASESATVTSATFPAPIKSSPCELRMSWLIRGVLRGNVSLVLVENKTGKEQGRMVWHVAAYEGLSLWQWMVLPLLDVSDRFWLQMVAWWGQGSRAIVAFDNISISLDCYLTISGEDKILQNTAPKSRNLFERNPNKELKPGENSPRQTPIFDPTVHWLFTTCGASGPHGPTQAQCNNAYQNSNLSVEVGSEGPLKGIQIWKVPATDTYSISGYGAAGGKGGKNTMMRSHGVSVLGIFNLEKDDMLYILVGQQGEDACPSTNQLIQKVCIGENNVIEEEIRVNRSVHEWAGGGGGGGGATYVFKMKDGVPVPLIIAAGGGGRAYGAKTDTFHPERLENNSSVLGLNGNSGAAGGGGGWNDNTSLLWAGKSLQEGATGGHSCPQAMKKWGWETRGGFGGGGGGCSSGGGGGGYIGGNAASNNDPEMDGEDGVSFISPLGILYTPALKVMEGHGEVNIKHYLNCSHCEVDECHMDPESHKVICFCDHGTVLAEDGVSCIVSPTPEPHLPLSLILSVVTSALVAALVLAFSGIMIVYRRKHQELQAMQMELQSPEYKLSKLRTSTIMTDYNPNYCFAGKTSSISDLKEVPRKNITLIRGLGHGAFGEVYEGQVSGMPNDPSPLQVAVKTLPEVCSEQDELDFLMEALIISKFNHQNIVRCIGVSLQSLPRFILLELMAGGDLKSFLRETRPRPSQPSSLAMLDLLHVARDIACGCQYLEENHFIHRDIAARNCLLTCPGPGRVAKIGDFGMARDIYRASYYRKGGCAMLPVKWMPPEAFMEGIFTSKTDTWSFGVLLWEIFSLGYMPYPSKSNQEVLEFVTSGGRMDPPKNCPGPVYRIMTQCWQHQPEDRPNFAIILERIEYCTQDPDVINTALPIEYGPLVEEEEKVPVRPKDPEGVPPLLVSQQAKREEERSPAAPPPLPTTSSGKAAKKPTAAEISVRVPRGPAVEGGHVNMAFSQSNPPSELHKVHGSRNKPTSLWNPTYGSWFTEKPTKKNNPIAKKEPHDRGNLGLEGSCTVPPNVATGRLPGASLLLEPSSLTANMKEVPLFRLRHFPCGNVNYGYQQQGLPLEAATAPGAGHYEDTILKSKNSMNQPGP
# Chain of Insulin receptor (P06213 28-758 limits assumed): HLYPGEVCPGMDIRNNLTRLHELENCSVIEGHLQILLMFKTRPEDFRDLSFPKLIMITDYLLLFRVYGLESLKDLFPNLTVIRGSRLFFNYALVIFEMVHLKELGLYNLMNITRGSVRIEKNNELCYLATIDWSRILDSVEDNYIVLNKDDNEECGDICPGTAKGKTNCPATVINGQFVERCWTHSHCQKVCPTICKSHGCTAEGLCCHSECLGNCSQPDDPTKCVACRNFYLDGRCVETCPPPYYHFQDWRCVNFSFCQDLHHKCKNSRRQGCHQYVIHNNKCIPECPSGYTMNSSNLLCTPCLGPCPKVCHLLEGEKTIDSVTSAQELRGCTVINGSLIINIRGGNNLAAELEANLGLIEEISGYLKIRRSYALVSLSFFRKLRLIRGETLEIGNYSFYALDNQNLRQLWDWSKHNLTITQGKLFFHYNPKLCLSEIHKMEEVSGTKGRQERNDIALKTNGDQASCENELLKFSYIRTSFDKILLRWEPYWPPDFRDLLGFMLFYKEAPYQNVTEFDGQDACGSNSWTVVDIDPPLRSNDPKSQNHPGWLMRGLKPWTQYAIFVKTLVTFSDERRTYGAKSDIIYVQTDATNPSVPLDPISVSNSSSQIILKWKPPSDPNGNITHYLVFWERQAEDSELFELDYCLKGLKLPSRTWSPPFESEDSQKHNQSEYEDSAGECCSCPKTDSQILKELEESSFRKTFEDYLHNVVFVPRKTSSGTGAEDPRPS
# Chain of Insulin receptor (P06213 763-1382 limits assumed): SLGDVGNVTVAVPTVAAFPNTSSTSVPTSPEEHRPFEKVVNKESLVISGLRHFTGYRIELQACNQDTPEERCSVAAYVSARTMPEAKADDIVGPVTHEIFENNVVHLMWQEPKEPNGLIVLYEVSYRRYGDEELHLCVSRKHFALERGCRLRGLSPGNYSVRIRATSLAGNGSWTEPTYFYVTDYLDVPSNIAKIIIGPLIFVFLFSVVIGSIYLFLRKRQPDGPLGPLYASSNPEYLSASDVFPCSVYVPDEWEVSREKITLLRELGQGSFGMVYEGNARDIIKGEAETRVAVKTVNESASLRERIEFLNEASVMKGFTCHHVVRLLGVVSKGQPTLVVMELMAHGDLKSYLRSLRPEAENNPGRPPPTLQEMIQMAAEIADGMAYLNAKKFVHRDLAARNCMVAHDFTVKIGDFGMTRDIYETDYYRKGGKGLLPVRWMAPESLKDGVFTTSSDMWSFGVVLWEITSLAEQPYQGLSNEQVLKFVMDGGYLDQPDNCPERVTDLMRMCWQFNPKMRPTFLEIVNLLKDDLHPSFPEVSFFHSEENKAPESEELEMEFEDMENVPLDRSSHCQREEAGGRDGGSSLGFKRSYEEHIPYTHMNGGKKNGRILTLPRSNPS
Compound,IC50 [1] [µM],bioavailability [2] [%],IC50 [3] [µM]
CCN1C(=O)CCCc2c1ccc(Nc1ncc(Cl)c(Nc3ccccc3S(=O)(=O)N(C)C)n1)c2OC,0.071,–,–
CN1C(=O)CCCc2cc(Nc3ncc(Cl)c(N[C@H]4[C@@H](C(N)=O)[C@@H]5C=C[C@H]4C5)n3)ccc21 (racemic),0.091,13,–
CCN1C(=O)CCCc2cc(Nc3ncc(Cl)c(Nc4ccccc4S(=O)(=O)N(C)C)n3)c(OC)cc21,0.037,–,–
CCN1C(=O)CCCc2cc(Nc3ncc(Cl)c(N[C@H]4[C@@H](C(N)=O)[C@@H]5C=C[C@H]4C5)n3)c(OC)cc21,0.089,–,–
CN1C(=O)CCCc2cc(Nc3ncc(Cl)c(N[C@@H]4CCCC[C@@H]4C(N)=O)n3)ccc21 (racemic),0.319,–,–
CN1C(=O)CCCc2cc(Nc3ncc(Cl)c(N[C@@H]4CCCC[C@H]4C(N)=O)n3)ccc21 (racemic),2.01,–,–
CCN1C(=O)CCCc2c1ccc(Nc1ncc(Cl)c(Nc3ccccc3S(=O)(=O)C(C)C)n1)c2OC,0.032,–,–
CNC(=O)c1cccc(Nc2nc(Nc3ccc4c(c3)CCCC(=O)N4C)ncc2Cl)c1,0.247,–,0.568
CNS(=O)(=O)c1ccccc1Nc1nc(Nc2ccc3c(c2)CCCC(=O)N3C)ncc1Cl,0.01,11,–
CCN1C(=O)CCCc2c1ccc(Nc1ncc(Cl)c(Nc3ccccc3C(=O)NC)n1)c2OC,0.215,–,–
CNC(=O)c1ccccc1Nc1nc(Nc2ccc3c(c2)CCCC(=O)N3C)ncc1Cl,–,9,–
CCN1C(=O)CCCc2cc(Nc3ncc(Cl)c(Nc4ccccc4S(=O)(=O)C(C)C)n3)c(OC)cc21,0.012,–,–
CCN1C(=O)CCCc2cc(Nc3ncc(Cl)c(Nc4ccccc4C(=O)NC)n3)c(OC)cc21,0.034,–,–
